In one test the test system is HCT116 cells. In words: MTT antiproliferative assay, HCT116. It counts as cell-based, human. The settings on record: Homo sapiens, HCT-116, 72 h, 10 μM, read-out: HCT116 % Inh. at 10 μM. The procedure: The growth inhibitory effects of the test compounds, at 10 µM dose, were determined after 72 h incubation using the 3-(4,5-dimethylthiazol-2-yl)-2,5-diphenyl tetrazolium bromide (MTT) assay.
(§1) Cytotoxic activity of certain Hsp90 inhibitors against human cancer cell lines (MCF-7, SK-BR-3, and HCT116) was investigated using the MTT assay following the reported procedure. Cells were seeded into 96-well plates at a density of 3000 cells per well (MCF-7, HCT116, SK-BR-3 cells per each well). The compounds were added into cells and incubated for 72 h. Then, absorbance at 450 nm was measured using a Microplate Absorbance Reader (Bio-Rad, Hercules, CA, USA).
(Formazan colour is commonly taken as a measure of viable cells.)

Another test addresses Hsp90α (Homo sapiens, UniProt P07900). Kind of test: Colorimetric determination of ATPase activity of Hsp90. It counts as biochemical. The conditions noted are these: 50 µM compound, 30 min, compared to positive control with Hsp90α, duplicate. Here is the method: The reaction was terminated by adding 200 μL reagent buffer. Followed by incubation with reagent buffer for 30 min at the room temperature, the absorbance was measured at 620 nm using a Biotek-Synergy Neo-Plate Reader (BioTek Instruments, Winooski, VT, USA).

Test [1] has as its target T1, human recombinant N-terminal Hsp90α (Homo sapiens, UniProt P07900).
T1 construct: human recombinant N-terminal Hsp90α protein; purchased Reaction Biology Corporation (RBC, Malvern, PA, USA; assay service)
Kind of test: Fluorescence polarization competition assay with FITC-GM probe (Reaction Biology Corporation). The settings on record: FITC-GM probe. It counts as binding. On the technique in general: Polarisation of emitted light reports the rotation of a fluorescent probe.

In test [2] the target is T2, mHsp90ND (N-terminal domain of mouse Hsp90α) (Mus musculus, UniProt P07901).
T2 construct: Hsp90α (residues 9–225 Swiss Prot entry: P07901); His6 (N); made in house; host or cells: Escherichia coli BL21 (DE3) codon plus RIL
In words: Isothermal titration calorimetry (ITC). It counts as binding. The conditions noted are these: ITC, 25 °C. The procedure: The PCR product was cloned into plasmid pET28a, which encodes a purification tag consisting of the amino acids His6 at the N-terminal of the protein. mHsp90ND was expressed in Escherichia coli (E. coli) BL21 (DE3) codon plus RIL (Stratagene) cell. The cells were lysed by sonication in 50 mM Tris-HCl (pH 7.4), 100 mM NaCl, 2 mM 2-mercaptoethanol, and 0.2 mM phenylmethylsulfonyl fluoride (PMSF). After centrifugation, mHsp90ND in the supernatant was purified by Ni^2+-chelated Hi-trap chelating column, and HiLoad 26/60 200pg column (GE healthcare, Chicago, IL, USA). After the final step, mHsp90ND was stored in 20 mM Tris-HCl (pH 7.4), 100 mM NaCl, and 1 mM dithiothreitol (DTT).
Stock solutions of those compounds were prepared in dimethyl sulfoxide (DMSO) at 100 mM concentration and stored at −20 °C. The ITC buffer contained 20 mM Tris (pH 8.0), 100 mM NaCl, and up to 2% DMSO. […] The experimental raw data were corrected for dilution by subtracting the values for buffer alone and then fit by a one-site binding model. Titration data were fit using a nonlinear least squares curve-fitting algorithm with three floating variables: stoichiometry, binding constant (KD), and change of enthalpy of interaction.
On the technique in general: ITC needs no label: the signal is the heat of the interaction.

In test [3] the test system is HSP90 client proteins (EGFR, Akt), Hsp70 in MCF7 cells. Kind of test: Western blot of HSP90 client proteins and Hsp70 in MCF7 cells. The conditions noted are these: 24 h. It counts as cell-based, human. The procedure: Furthermore, the effect of compound 14 on cellular biomarkers of the HSP90 inhibition was evaluated to obtain insights about the molecular mechanisms triggering its anticancer activity. MCF7 cells were incubated with various doses of compound 14 (0.5, 1, 5, 10, and 20 μM) for 24 h, and the expression levels of HSP90 client proteins (EGFR, Akt, and Cdk4), Hsp90, HSP70, and glyceraldehyde-3-phosphate dehydrogenase (GAPDH) were determined by Western blot analysis (Figure 6).
MCF7 cells were seeded in 60 mm culture dishes, incubated overnight, and treated with the indicated concentrations of compound 14 or geldanamycin for 24 h. Cells were then harvested and lysed on ice by radioimmunoprecipitation assay (RIPA) buffer (23 mM Tris-HCl (pH 7.6), 130 mM NaCl, 1% nonidet P-40 (NP-40), 1% sodium deoxycholate, 0.1% SDS) supplemented with protease and phosphatase inhibitor cocktails, and […] of lysate perlane was separated by SDS-PAGE, followed by transferring to a polyvinylidene fluoride (PVDF) membrane (Bio-Rad, Hercules, CA, USA). The membrane was blocked with 5% skim milk in TBS-T, and then incubated with the corresponding primary antibody (EGFR, Akt, Hsp90, Hsp70, or GAPDH). After binding of an appropriate secondary antibody (Santa Cruz, CA, USA) coupled to horseradish peroxidase, proteins were visualized by enhanced chemiluminescence (ECL) according to the instructions of the manufacturer (GE healthcare, Chicago, IL, USA).

A further test relates to MCF-7 cells. Kind of test: MTT antiproliferative assay, MCF-7. It counts as cell-based, human. The conditions noted are these: Homo sapiens, MCF7, 72 h. The procedure:
The growth inhibitory effects of the test compounds, at 10 µM dose, were determined after 72 h incubation using the 3-(4,5-dimethylthiazol-2-yl)-2,5-diphenyl tetrazolium bromide (MTT) assay. […] Such modest cellular outcomes of those purine derivatives may be attributed to their lower lipophilic characters, which in turn restrict their cellular permeability into cancer cells. […] The 2-phenyloxazole-substituted purine 8 exerted reasonable antiproliferative activity, with GI values of 33.27% and 37.46% against MCF-7 and SK-BR-3 cells, respectively.
as §1

Another test concerns SK-BR-3 cells. Kind of test: MTT antiproliferative assay, SK-BR-3. It counts as cell-based, human. The settings on record: Homo sapiens, SK-BR-3, 72 h.
From the text: […] […] Such modest cellular outcomes of those purine derivatives may be attributed to their lower lipophilic characters, which in turn restrict their cellular permeability into cancer cells. […] The 2-phenyloxazole-substituted purine 8 exerted reasonable antiproliferative activity, with GI values of 33.27% and 37.46% against MCF-7 and SK-BR-3 cells, respectively.
as §1

The structures appear in SMILES notation.

As usually defined, the IC50 is the concentration at which inhibition is half-maximal. For orientation: Kd means the concentration at which binding is half-saturated. As usually defined, the GI50 is the concentration at which growth is held to half of that of the control. Higher therefore signals lower sensitivity of the cells. Turning to `Cc1ccc(Cn2cnc3c(Cl)nc(N)nc32)cc1` [Compound 14, 6-Chloro-9-(4-methylbenzyl)-9H-purin-2-amine], the inhibition at 10 µM with HCT116 cells is 46.5%; in test [1] (single dose 10 μM, duplicate, read-out: Hsp90α % Inhibition @10 μM), 95.4%; in the test on MCF-7 cells (10 μM, read-out: MCF-7 % Inh. at 10 μM) it was 55.1%; with SK-BR-3 cells (10 μM, read-out: SK-BR-3 % Inh. at 10 μM), 60.9%. Further, the activity at 50 µM on Hsp90α was found to be 83.6%. Moreover, the IC50 in test [1] (10-dose, threefold serial dilution starting at 100 μM, mean of two experiments) worked out at 1 µM. In test [2], the “∆H” value is -17.8 ± 0.2 kcal/mol. Besides, the “∆S” value in test [2] is −30.5 cal/mol/deg. Besides, the “N (binding stoichiometry)” value in test [2] (one-site binding model) is listed as 0.89. Also, in test [2] (one-site binding model, read-out: KD), the Kd worked out at 0.41 µM. For the same compound, the EGFR expression level result in test [3] (10 μM) is reported as “remarkably decreased”. For the same compound, the Akt expression level entry in test [3] (20 μM) is “remarkably decreased”. For the same compound, in test [3] (0.5-20 μM, dose-dependent), the Hsp70 expression level result is recorded as “upregulated”. For the same compound, the GI50 in the test with MCF-7 cells (mean ± SEM of two experiments) was determined as 16.2 ± 0.71 µM; with SK-BR-3 cells (mean ± SEM of two experiments) it was 15.2 ± 2.08 µM.

(Values after paper PMC7763603, “Structural Basis for Design of New Purine-Based Inhibitors Targeting the Hydrophobic Binding Pocket of Hsp90” (International Journal of Molecular Sciences, 2020).)
